Data as given in patent US8268859B2, “Glucocorticoid mimetics, methods of making them, pharmaceutical compositions and uses thereof” (Boehringer Ingelheim International GmbH, priority 2008, dated 2012).
≈ marks a conversion by molar mass, not a printed value. Like-named read-outs stand apart in the source and are kept apart here.

How the values were obtained:
[1] = Human microsomal stability; type: in vitro ADME; details: pH 7.4; human liver microsomes; read-out: human liver microsome half life
[2] = High throughput solubility; type: physicochemical; details: aqueous buffer (pION system solution), pH 7, aqueous buffer, kinetic from dmso stock
Potassium Channel HERG = target: T1, Potassium Channel HERG (Homo sapiens, UniProt Q12809); experiment: hERG assays (either hERG binding assay or hERG patch clamp assay); type: cell-based; details: Table 3, not specified per compound
T1 construct: expressed in transfected cells; host or cells: HEK-293 cells
T1 sequence (Q12809 whole entry): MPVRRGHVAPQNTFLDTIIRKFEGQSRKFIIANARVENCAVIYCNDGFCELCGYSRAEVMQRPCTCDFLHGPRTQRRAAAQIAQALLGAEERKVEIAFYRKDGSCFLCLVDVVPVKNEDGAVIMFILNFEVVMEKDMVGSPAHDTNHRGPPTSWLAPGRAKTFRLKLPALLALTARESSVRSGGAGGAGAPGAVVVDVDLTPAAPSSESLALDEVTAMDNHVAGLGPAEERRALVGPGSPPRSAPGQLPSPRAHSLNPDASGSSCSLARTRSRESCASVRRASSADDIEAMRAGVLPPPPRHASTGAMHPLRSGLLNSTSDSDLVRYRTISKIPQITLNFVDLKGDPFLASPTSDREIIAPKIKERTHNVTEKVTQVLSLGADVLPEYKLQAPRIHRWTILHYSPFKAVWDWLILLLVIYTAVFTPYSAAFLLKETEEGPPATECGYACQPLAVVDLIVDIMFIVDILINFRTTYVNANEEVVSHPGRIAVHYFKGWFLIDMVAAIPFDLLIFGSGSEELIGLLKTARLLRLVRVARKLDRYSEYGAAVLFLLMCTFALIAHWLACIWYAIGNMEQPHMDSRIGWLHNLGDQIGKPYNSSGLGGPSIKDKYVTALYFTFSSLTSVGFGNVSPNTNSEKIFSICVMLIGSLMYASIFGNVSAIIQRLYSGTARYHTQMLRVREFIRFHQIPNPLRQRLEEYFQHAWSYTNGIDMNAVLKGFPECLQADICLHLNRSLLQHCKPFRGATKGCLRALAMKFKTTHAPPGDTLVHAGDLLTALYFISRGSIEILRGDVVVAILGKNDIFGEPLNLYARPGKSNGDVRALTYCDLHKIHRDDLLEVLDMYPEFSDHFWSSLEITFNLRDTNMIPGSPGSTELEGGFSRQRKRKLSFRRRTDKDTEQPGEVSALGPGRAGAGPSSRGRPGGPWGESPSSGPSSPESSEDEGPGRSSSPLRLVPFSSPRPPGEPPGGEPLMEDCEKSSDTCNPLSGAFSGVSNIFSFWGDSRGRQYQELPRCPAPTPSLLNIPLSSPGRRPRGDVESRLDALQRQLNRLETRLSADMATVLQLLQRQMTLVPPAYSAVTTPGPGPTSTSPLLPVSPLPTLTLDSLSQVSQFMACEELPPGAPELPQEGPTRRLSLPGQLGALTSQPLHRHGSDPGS

[3] = target: T2, human glucocorticoid receptor (GR) complex (Homo sapiens, UniProt P04150); experiment: Glucocorticoid receptor fluorescence polarization competitive binding assay;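 further: GR complex expressed in an insect system, wells lacking compound give full signal, excess unlabeled dexamethasone defines the blank, IC50 from logistic curve fit of polarization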
T2 construct: made in house; host or cells: insect expression system (baculovirus lysate)
T2 sequence (P04150 1-777): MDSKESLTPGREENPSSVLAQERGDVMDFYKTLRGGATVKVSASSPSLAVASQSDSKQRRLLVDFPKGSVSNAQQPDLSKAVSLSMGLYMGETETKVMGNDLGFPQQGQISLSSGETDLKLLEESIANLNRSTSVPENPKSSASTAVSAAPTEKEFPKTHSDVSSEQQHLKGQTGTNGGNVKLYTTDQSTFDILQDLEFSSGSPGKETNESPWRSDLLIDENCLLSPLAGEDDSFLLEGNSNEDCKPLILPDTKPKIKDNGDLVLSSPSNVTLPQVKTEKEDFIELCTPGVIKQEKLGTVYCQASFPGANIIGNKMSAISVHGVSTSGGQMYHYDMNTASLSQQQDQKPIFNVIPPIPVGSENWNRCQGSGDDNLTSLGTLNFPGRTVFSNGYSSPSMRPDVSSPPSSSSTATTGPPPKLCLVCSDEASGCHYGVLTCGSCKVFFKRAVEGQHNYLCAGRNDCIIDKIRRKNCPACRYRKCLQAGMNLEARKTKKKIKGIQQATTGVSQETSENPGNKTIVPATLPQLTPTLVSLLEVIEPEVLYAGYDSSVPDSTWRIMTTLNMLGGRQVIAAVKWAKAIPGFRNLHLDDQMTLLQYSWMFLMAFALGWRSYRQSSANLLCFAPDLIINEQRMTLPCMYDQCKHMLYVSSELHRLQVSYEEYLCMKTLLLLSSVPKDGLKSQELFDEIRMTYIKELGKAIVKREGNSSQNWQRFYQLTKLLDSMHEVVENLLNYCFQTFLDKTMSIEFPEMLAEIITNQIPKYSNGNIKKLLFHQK

human recombinant CYP3A4 = human recombinant CYP3A4 (Homo sapiens, UniProt P08684); experiment: Cytochrome P450 inhibition assay (substrate 7-benzyloxy-4-(trifluoromethyl)coumarin); type: in vitro ADME;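 further: compounds preincubated at least 10 min at 37 °C before adding enzyme plus substrate, reaction run 30 min at 37 °C, ketoconazole standard curve on every plate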
Chain of human recombinant CYP3A4 (P08684 whole entry): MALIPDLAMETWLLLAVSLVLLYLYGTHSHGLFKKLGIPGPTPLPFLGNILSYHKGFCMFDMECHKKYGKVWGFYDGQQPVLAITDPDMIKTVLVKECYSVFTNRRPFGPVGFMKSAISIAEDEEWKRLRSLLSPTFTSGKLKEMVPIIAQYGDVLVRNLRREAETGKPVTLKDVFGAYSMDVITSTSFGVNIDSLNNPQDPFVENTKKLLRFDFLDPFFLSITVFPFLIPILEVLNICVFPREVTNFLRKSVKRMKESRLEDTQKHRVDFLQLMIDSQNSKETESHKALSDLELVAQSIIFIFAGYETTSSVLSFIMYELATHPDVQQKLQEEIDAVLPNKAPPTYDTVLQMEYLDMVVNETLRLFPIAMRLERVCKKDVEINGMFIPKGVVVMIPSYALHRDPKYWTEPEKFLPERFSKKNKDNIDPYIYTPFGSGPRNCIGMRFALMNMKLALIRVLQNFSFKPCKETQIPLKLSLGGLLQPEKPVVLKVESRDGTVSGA

[4] = Table 1, competition with TAMRA-labeled dexamethasone, read-out: GR IC50

| SMILES | half-life [1] [min] | solubility [2] [µg/mL] | IC50 (Potassium Channel HERG) [µM] | IC50 [3] [µM] | IC50 (human recombinant CYP3A4; Table 1, read-out: CYP3A4 IC50) [µM] | IC50 [3, 4] [µM] | IC50 (human recombinant CYP3A4; Table 3, read-out: CYP3A4 Inhibition IC50) [µM] |
| --- | --- | --- | --- | --- | --- | --- | --- |
| CC(C)(CC(O)(Cc1cc2cc(S(C)(=O)=O)ncc2[nH]1)C(F)(F)F)c1ccccc1S(C)(=O)=O (centres unmarked) | < 3 | 59 (≈ 114 µM) | – | – | – | – | – |
| CC(C)(C[C@@](O)(Cc1cc2cc(S(C)(=O)=O)ncc2[nH]1)C(F)(F)F)c1ccccc1C(N)=O | 44 | 17 (≈ 35.2 µM) | > 30 | – | – | – | – |
| CCS(=O)(=O)c1cc2cc(C[C@](O)(CC(C)(C)c3ccc(F)cc3C(N)=O)C(F)(F)F)[nH]c2cn1 | > 300 | > 100 | – | – | – | – | – |
| CC(C)(CC(O)(Cc1cc2cc(S(C)(=O)=O)ncc2[nH]1)C(F)(F)F)c1ccc(F)cc1C(N)=O (centres unmarked) | 45 | > 100 | > 30 | – | – | – | – |
| CC(C)(C[C@@](O)(Cc1cc2nc(S(C)(=O)=O)ccc2[nH]1)C(F)(F)F)c1ccc(F)cc1C(N)=O [5-Fluoro-2-[(R)-4,4,4-trifluoro-3-hydroxy-3-(5-methanesulfonyl-1H-pyrrolo[3,2-b]pyridin-2-ylmethyl)-1,1-dimethyl-butyl]benzamide] | – | – | – | 0.027 | 7 | – | – |
| CC(C)(C[C@@](O)(Cc1cc2cc(S(C)(=O)=O)ncc2[nH]1)C(F)(F)F)c1cccc(Br)c1 [(R)-4-(3-Bromophenyl)-1,1,1-trifluoro-2-(5-methanesulfonyl-1H-pyrrolo[2,3-c]pyridin-2-ylmethyl)-4-methylpentan-2-ol] | – | – | – | 0.009 | 20 | – | – |
| CC(C)(C[C@@](O)(Cc1cc2nc(S(C)(=O)=O)ccc2[nH]1)C(F)(F)F)c1cccc(Br)c1 [(R)-4-(3-Bromophenyl)-1,1,1-trifluoro-2-(5-methanesulfonyl-1H-pyrrolo[3,2-b]pyridin-2-ylmethyl)-4-methylpentan-2-ol] | – | – | – | – | 15 | 0.014 | – |
| CCS(=O)(=O)c1cc2cc(C[C@](O)(CC(C)(C)c3cc(Cl)cc4c3OCC4)C(F)(F)F)[nH]c2cn1 [(R)-4-(5-Chloro-2,3-dihydrobenzofuran-7-yl)-2-(5-ethanesulfonyl-1H-pyrrolo[2,3-c]pyridin-2-ylmethyl)-1,1,1-trifluoro-4-methylpentan-2-ol] | – | – | – | – | 1.8 | 0.007 | – |
| CC(C)(C[C@@](O)(Cc1cc2cc(S(C)(=O)=O)ncc2[nH]1)C(F)(F)F)c1cc(Cl)cc2c1OCC2 [drawing 3, (R)-4-(5-Chloro-2,3-dihydrobenzofuran-7-yl)-1,1,1-trifluoro-2-(5-methanesulfonyl-1H-pyrrolo[2,3-c]pyridin-2-ylmethyl)-4-methylpentan-2-ol] | – | – | – | – | 6.5 | 0.006 | – |
| CC(C)(C[C@@](O)(Cc1cc2cc(S(C)(=O)=O)ncc2[nH]1)C(F)(F)F)c1cc(Cl)cc2c1OCC2 [drawing 95] | < 3 | – | 9.4 | – | – | – | 6.5 |
| CC(C)(C[C@@](O)(Cc1cc2cc(S(C)(=O)=O)ncc2[nH]1)C(F)(F)F)c1ccc(Cl)cc1S(C)(=O)=O [drawing 97] | 17 | 40 (≈ 72.3 µM) | > 10 | – | – | – | – |
| CCS(=O)(=O)c1cc2cc(CC(O)(CC(C)(C)c3ccc(Cl)cc3S(C)(=O)=O)C(F)(F)F)[nH]c2cn1 (centres unmarked) [drawing 98] | 11 | 18 (≈ 31.7 µM) | > 10 | – | – | – | – |
| CCS(=O)(=O)c1cc2cc(CC(O)(CC(C)(C)c3ccc(F)cc3S(C)(=O)=O)C(F)(F)F)[nH]c2cn1 (centres unmarked) [drawing 99] | 7 | 52 (≈ 94.4 µM) | > 30 | – | – | – | – |
| CC(C)(C[C@@](O)(Cc1cc2cc(S(C)(=O)=O)ncc2[nH]1)C(F)(F)F)c1ccc(F)cc1S(C)(=O)=O [drawing 100] | 14 | > 100 | > 30 | – | – | – | – |
